{"source": "patent US20260092085A1", "about": "“SYNTHETIC TRIPLEX PEPTIDE NUCLEIC ACID-BASED INHIBITORS FOR CANCER THERAPY” (University of Connecticut, priority 2022, published 2026)", "origin": "cited, not measured here", "tested_on": "U2932 lymphoma cell line", "conditions": "U2932, 10 uM; cited from earlier work", "data": [{"substance": "cobomarsen", "values": [{"measurement": "increase in apoptosis compared to control", "result": 4, "unit": "fold"}]}]}
